Test results taken from patent US8383623B2, “Phthalazin-(2H)-one inhibitors of kinases” (Abbott Laboratories, priority 2010, dated 2013).

Molecular target: T1, Cdc7 (BEV coexpressed huCDC7/DBF4) (Homo sapiens, UniProt O00311)
T1 construct: made in house; host or cells: BEV (baculovirus expression vector)
Assay: Cdc7 enzyme inhibition assay ([33P]-ATP, biotinylated peptide substrate, FlashPlate)
Type: biochemical
Settings: Ki generated from IC50 assuming ATP-competitive inhibition, apparent ATP Km 0.7 μM; 1 μM ATP, 1 hr
Method: This example describes the assays that may be used to identify compounds having kinase activity.
Cdc7 (BEV coexpressed huCDC7/DBF4) is prepared internally. Cdc7 assays are conducted as follows with final concentrations as listed. In 384-well v-bottom polypropylene plates, 6 μL compound (2% DMSO), is mixed with 6 μL of Cdc7 (2 ug/mL), and Jerini peptide substrate A-A11 (biotin-C6linker-TPSDSLIYDDGLS) (2 μM), followed by immediate initiation with 6 μL λ-[^33P]-ATP (1 μM, 20 mCi/μmol) using a reaction buffer comprising 25 mM HEPES, pH 7.5, 1 mM DTT, 10 mM MgCl2, 100 μM Na3VO4, 0.075 mg/ml Triton X-100. Reactions are quenched after 1 hr by the addition of 90 μL stop buffer (50 mM EDTA, 2M NaCl). 85 μL of the stopped reactions are transferred to 384-well streptavidin-coated plates (FlashPlate Plus, Perkin Elmer), incubated 30 minutes at room temperature and washed 3 times with 0.05% Tween-20/PBS using an ELX-405 automated plate washer (BioTek), and counted on a TopCount Scintillation Plate Reader (Packard). IC50 values are determined via non-linear regression fitting of enzyme inhibition data and corresponding Ki values are generated assuming ATP-competitive (equilibrium) inhibition and using the experimentally determined apparent ATP Km of 0.7 μM (as determined using the above assay condition, but varying ATP).
Table 1 depicts enzyme inhibition data (Ki) for exemplary compounds. In Table 1, “A” represents a K, of less than 10 nM, “B” represents a K, of between 10 nM and 100 nM, and “C” represents a Ki of greater than 100 nM.

T1 sequence (O00311 whole entry): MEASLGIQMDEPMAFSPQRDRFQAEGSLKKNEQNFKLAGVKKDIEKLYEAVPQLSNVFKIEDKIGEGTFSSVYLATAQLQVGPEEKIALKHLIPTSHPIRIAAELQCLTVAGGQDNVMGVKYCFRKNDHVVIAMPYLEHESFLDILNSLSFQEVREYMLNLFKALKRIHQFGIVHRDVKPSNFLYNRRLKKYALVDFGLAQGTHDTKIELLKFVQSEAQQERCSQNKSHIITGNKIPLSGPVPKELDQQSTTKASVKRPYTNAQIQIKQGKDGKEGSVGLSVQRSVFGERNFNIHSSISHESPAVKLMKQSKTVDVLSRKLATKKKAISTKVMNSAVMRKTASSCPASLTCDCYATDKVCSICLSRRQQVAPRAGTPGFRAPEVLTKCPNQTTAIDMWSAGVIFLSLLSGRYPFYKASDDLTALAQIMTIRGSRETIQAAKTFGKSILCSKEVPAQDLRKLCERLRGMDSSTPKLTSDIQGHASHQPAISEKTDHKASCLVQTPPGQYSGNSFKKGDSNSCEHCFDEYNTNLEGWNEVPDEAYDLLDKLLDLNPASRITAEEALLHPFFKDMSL
T1 sequence (Q9UBU7 whole entry partner): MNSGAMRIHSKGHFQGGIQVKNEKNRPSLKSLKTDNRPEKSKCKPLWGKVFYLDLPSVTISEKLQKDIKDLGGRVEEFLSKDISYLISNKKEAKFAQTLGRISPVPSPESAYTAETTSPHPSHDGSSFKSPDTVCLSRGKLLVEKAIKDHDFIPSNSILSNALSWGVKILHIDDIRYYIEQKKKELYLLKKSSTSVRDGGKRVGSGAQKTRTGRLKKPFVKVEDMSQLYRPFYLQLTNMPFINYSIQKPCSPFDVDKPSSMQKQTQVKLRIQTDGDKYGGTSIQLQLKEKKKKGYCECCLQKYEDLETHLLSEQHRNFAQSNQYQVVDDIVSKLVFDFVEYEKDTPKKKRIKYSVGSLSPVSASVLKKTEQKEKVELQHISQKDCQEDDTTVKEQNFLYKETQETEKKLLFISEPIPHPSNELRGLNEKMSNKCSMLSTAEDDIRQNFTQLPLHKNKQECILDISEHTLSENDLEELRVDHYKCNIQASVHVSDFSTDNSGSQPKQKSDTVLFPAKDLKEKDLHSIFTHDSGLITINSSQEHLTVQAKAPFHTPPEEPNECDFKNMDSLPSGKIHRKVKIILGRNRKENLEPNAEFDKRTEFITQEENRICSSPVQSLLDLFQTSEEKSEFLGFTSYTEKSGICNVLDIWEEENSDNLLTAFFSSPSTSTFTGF

4-(2,5-dichlorobenzyl)-6-(1H-pyrrolo[2,3-b]pyridin-3-yl)phthalazin-1(2H)-one [Example 6]
Ki: > 100 nM

O=c1[nH]nc(Cc2ccccc2)c2cc(-c3c[nH]c4ncccc34)ccc12 [Example 1, 4-benzyl-6-(1H-pyrrolo[2,3-b]pyridin-3-yl)phthalazin-1(2H)-one]
Ki: < 10 nM

O=c1[nH]nc(Cc2ccccc2)c2cc(-c3ccncc3)ccc12 [Example 2, 4-benzyl-6-(pyridin-4-yl)phthalazin-1(2H)-one]
Ki: > 100 nM

O=c1[nH]nc(Cc2ccccc2)c2cc(-c3cn[nH]c3)ccc12 [Example 3, 4-benzyl-6-(1H-pyrazol-4-yl)phthalazin-1(2H)-one]
Ki: 10 to 100 nM

O=c1[nH]nc(Cc2ccccc2)c2cc(-c3cccnc3)ccc12 [Example 4, 4-benzyl-6-(pyridin-3-yl)phthalazin-1(2H)-one]
Ki: > 100 nM

O=c1[nH]nc(Cc2ccncc2)c2cc(-c3c[nH]c4ncccc34)ccc12 [Example 5, 4-(pyridin-4-ylmethyl)-6-(1H-pyrrolo[2,3-b]pyridin-3-yl)phthalazin-1(2H)-one]
Ki: < 10 nM

O=c1[nH]nc(CC2CCCNC2)c2cc(-c3c[nH]c4ncccc34)ccc12 (stereo not shown) [Example 7, 4-(piperidin-3-ylmethyl)-6-(1H-pyrrolo[2,3-b]pyridin-3-yl)phthalazin-1(2H)-one]
Ki: > 100 nM

O=c1[nH]nc(Cc2cccnc2)c2cc(-c3c[nH]c4ncccc34)ccc12 [Example 8, 4-(pyridin-3-ylmethyl)-6-(1H-pyrrolo[2,3-b]pyridin-3-yl)phthalazin-1(2H)-one]
Ki: < 10 nM

O=c1[nH]nc(CC2CCNCC2)c2cc(-c3c[nH]c4ncccc34)ccc12 [Example 9, 4-(piperidin-4-ylmethyl)-6-(1H-pyrrolo[2,3-b]pyridin-3-yl)phthalazin-1(2H)-one]
Ki: 10 to 100 nM

O=c1[nH]nc(CC2CCCCN2)c2cc(-c3c[nH]c4ncccc34)ccc12 (stereo not shown) [Example 10, 4-(piperidin-2-ylmethyl)-6-(1H-pyrrolo[2,3-b]pyridin-3-yl)phthalazin-1(2H)-one]
Ki: > 100 nM

CN(C)c1ccc(Cc2n[nH]c(=O)c3ccc(-c4c[nH]c5ncccc45)cc23)cc1 [Example 11, 4-[4-(dimethylamino)benzyl]-6-(1H-pyrrolo[2,3-b]pyridin-3-yl)phthalazin-1(2H)-one]
Ki: 10 to 100 nM

CC(=O)Nc1ccc(Cc2n[nH]c(=O)c3ccc(-c4c[nH]c5ncccc45)cc23)cc1 [Example 12, N-(4-{[4-oxo-7-(1H-pyrrolo[2,3-b]pyridin-3-yl)-3,4-dihydrophthalazin-1-yl]methyl}phenyl)acetamide]
Ki: < 10 nM

Cn1ccc(Cc2n[nH]c(=O)c3ccc(-c4c[nH]c5ncccc45)cc23)n1 [Example 13, 4-[(1-methyl-1H-pyrazol-3-yl)methyl]-6-(1H-pyrrolo [2,3-b]pyridin-3-yl)phthalazin-1(2H)-one]
Ki: 10 to 100 nM
